System: Escherichia coli
Assay: Survival (viability) of bacteria collected using surfactant-containing solution
Assay type: cell-based
Conditions: 1% surfactant solution, 20° C.; then capture with 10% cationic graft polymer; one hundredth of suspension cultured 37° C. 18 hours; Control 1 >5000
Experimental: Escherichia coli precipitated on a separating agent in a blood collection tube is collected while being alive using a non-ionic surfactant-containing solution.
The produced Escherichia coli was added to a physiological saline solution in an amount of 2×10^8 cell/mL, and the resulting mixture was used as a sample.
To a blood collection tube, 3 mL of a bacterial solution in which Escherichia coli was dispersed in a physiological saline solution was added, and was centrifuged at 3000 rpm for five minutes. Thereafter, the supernatant was removed. Subsequently, 0.5 mL of a 1% surfactant solution was added to the blood collection tube, and a bacterial cell precipitated on a surface of a separating agent was dispersed.
The bacterial cell suspension was allowed to stand at 20° C. for 30 minutes and three hours. Thereafter, 100 μL of a 10% cationic graft polymer and 100 μL of a reaction solution were mixed and allowed to react for one minute. Thereafter, the resulting product was centrifuged for 30 seconds by a tabletop small centrifugal machine to obtain a precipitation pellet. The supernatant was removed, and the resulting precipitation pellet was completely dispersed with 500 μL of a dispersion solution to obtain a suspension. One hundredth of the suspension was cultured at 37° C. for 18 hours using a LB bacteria culture agar medium, and the number of living bacteria was confirmed by the number of colonies.
As a control, a physiological saline solution was used in place of the surfactant solution (Control 1).

| Compound | the number of colonies, allowed to stand for 30 minutes | the number of colonies, allowed to stand for 3 hours |
| --- | --- | --- |
| C[C@H](CCC(=O)NCCC[N+](C)(C)CCCS(=O)(=O)[O-])[C@H]1CC[C@H]2[C@@H]3[C@H](O)C[C@@H]4C[C@H](O)CC[C@]4(C)[C@H]3C[C@H](O)[C@]12C [CHAPS] | 84 | 61 |
| sucrose laurate | 4000 | 3200 |

Source: patent US10252258B2, “Method for separating and concentrating target substance using novel cationic graft polymer” (priority 2014, dated 2019)
